This is an account of results in patent US20210070718A1, “NOVEL PHENYLSULFONYL OXAZOLE DERIVATIVE AND USE THEREOF” (priority 2018, published 2021).

Common to all, as to format: in vivo
The test system of test [1] is APP/PS1 mouse. Nature of the test: Fear conditioning test. The settings on record: 50 mg/kg intraperitoneally 3 times a week for 2 months, FIG. 5D. From the text: (§1) A mouse experiment was approved by the Kyungpook National University Institutional Animal Care and Use Committee (IACUC). As an animal model of neurodegenerative disease (particularly, Alzheimer's disease), a transgenic mouse line overexpressing APPswe (hAPP695swe) and PS1 (presenilin-1M146V) based on a C57BL/6 mouse (Charles River, UK) was used. [hereinafter, APP/PS1 mouse (denoted by AD), GlaxoSmithKline Co., Ltd.]
(§2) To confirm a therapeutic effect of the autophagy enhancing compound obtained in <Example 1>, an experimental substance was administered to the animal model according to the experimental outline (schedule) illustrated in FIG. 1. Specifically, PBS or the autophagy enhancing compound was intraperitoneally injected into a 6.5-month-old mouse 3 times a week at a dose of 50 mg/kg. After two months of the injection of the autophagy enhancing compound, behavioral analysis was performed, and the brain tissue of the mouse was used as a sample after the behavioral analysis (i.e., at 9.5 […] of mouse) (see FIG. 1).
(§3) In order to confirm potential effects on learning and memory, Morris water maze (MWM) and fear conditioning tests were performed. In the MWM, the mouse learned a task 4 times a day for 10 days, a platform was removed on day 11, and a probe trial was performed. […]

Test [2] concerns APP/PS1 mouse. Put plainly: Astrocyte (GFAP) and microglia (Iba-1) immunofluorescence in brain. The settings on record: 50 mg/kg intraperitoneally 3 times a week for 2 months, compared with APP/PS1 mouse.
From the text: as §1
To confirm a therapeutic effect of the autophagy enhancing compound obtained in <Example 1>, an experimental substance was administered to the animal model according to the experimental outline (schedule) illustrated in FIG. 1. Specifically, PBS or the autophagy enhancing compound was intraperitoneally injected into a 6.5-month-old mouse 3 times a week at a dose of 50 mg/kg. […]
After immobilization of the mouse's cerebrum and hippocampus, 0.5% thioflavin S (Sigma-Aldrich), anti-20G10 against Aβ42 (mouse, 1:1000) and anti-G30 against A1340 (rabbit, 1:1000), anti-GFAP (rabbit, 1:500, DAKO) and anti-Iba-1 (rabbit, 1:500, WAKO) were incubated together. The sites were analyzed using a confocal laser scanning microscope or an Olympus BX51 microscope equipped with Fluoview SV1000 imaging software (Olympus FV1000, Japan). A percentage of an area of a stained area to an area of total tissues was quantified and analyzed by using Metamorph software (Molecular Devices). […]

Test [3] concerns APP/PS1 mouse. Nature of the test: Morris water maze (MWM) test. The settings on record: 50 mg/kg intraperitoneally 3 times a week for 2 months, FIGS. 5A to 5C.
From the text: as §1, §2, §3

Test [4] concerns APP/PS1 mouse. Nature of the test: Real-time quantitative PCR of inflammatory cytokines in brain tissue. Conditions: 50 mg/kg intraperitoneally 3 times a week for 2 months, brain mRNA, FIG. 6C.
From the text: as §1, §2
A real-time quantitative PCR method was used to measure the expression levels of inflammatory response-related cytokines (TNF-α, IL-1β, and IL-6). Total RNA was extracted from the brain tissue using an RNeasy Plus mini kit (Qiagen, Korea, Ltd), and cDNA was synthesized from a total of 5 μg of RNA using a kit from Clontech (Mountain View, Calif.). In addition, by using a Corbett research RG-6000 real-time PCR instrument, real-time quantitative PCR was performed by setting 95° C., 10 minutes; 95° C., 10 seconds; and 58° C., 15 seconds as one cycle and repeating 40 cycles.

The subject of test [5] is APP/PS1 mouse. Put plainly: Western blotting of autophagy-related proteins in brain tissue.
From the text: as §1, §2
Expression of the following genes was analyzed using Western blotting. First, antibodies against LC3, beclin-1, and p62 [all, purchased from cell signaling Technologies], cathepsin D (R&D systems) and β-actin (Santa Cruz) were used, and density quantification was performed by using ImageJ software (US National Institutes of Health).
In order to confirm how the aforementioned autophagy enhancing compound (in particular, 5-methoxy-4-(phenylsulfonyl)-2-(4-(trifluoromethyl)phenyl)oxazole) actually act in an autophagy-related pathway in vivo, conversion of LC3-I to LC3-II, and expression levels of beclin-1, cathepsin D and p62 were confirmed through a Western blotting experiment in brain tissue samples of 9.5-month-old WT, APP/PS1 (untreated group), and an APP/PS1 mouse injected with the autophagy enhancing compound.
Background: Immunoblotting shows a protein as a band on a membrane.

Test [6] deals with APP/PS1 mouse. Put plainly: Amyloid-β and tau deposition by thioflavin S / immunofluorescence staining in brain cortex and hippocampus. Conditions: 50 mg/kg intraperitoneally 3 times a week for 2 months, compared to APP/PS1 mouse (PBS).
From the text: as §1, §2
After immobilization of the mouse's cerebrum and hippocampus, 0.5% thioflavin S (Sigma-Aldrich), anti-20G10 against Aβ42 (mouse, 1:1000) and anti-G30 against A1340 (rabbit, 1:1000), anti-GFAP (rabbit, 1:500, DAKO) and anti-Iba-1 (rabbit, 1:500, WAKO) were incubated together. The sites were analyzed using a confocal laser scanning microscope or an Olympus BX51 microscope equipped with Fluoview SV1000 imaging software (Olympus FV1000, Japan). A percentage of an area of a stained area to an area of total tissues was quantified and analyzed by using Metamorph software (Molecular Devices).
In order to determine whether the aforementioned autophagy enhancing compound had effects for prevention and treatment on neurodegenerative disease, the effect of the compound on an Alzheimer's model was representatively evaluated.
First, an amyloid-β (Aβ) profile of an Alzheimer's lesion and the deposition degree of tau protein were confirmed. First, the cerebral cortex and hippocampus regions of the mouse were stained with thioflavin S (ThioS) according to a known method to confirm the deposition degree of fibrillar amyloid-β. In addition, immunofluorescence staining of Aβ40, Aβ42, and AT8 was performed to confirm the deposition degree of amyloid-β and tau protein.

[7] abbreviates: 9.5-month-old APP/PS1 mouse, 50 mg/kg intraperitoneally 3 times a week for 2 months, versus increased level in APP/PS1 mouse.

For `COc1oc(-c2ccc(C(F)(F)F)cc2)nc1S(=O)(=O)c1ccccc1` [autophagy enhancing compound, 5-methoxy-4-(phenylsulfonyl)-2-(4-(trifluoromethyl)phenyl)oxazole], the “memory in fear conditioning test (contextual and tone tasks)” value in the test with APP/PS1 mouse [1] is recorded as “remarkable memory improvement effect”. In addition, the “activity of astrocytes (GFAP)” value with APP/PS1 mouse [2] (FIG. 6A) is reported as “significantly reduced”. For the same compound, in the test with APP/PS1 mouse [2] (FIG. 6B), the “activity of microglia (Iba-1)” value is “significantly reduced”. Besides, in the test with APP/PS1 mouse [3], the “impairment in spatial memory, cognition and memory formation (Morris water maze)” value is “significantly improved”. Moreover, in the test on APP/PS1 mouse [4], the “gene expression of inflammatory cytokine IL-1β” value is reported as “restored to a normal level”, the “gene expression of inflammatory cytokine IL-6” value is “restored to a normal level” and the “gene expression of inflammatory cytokine TNF-α” value is given as “restored to a normal level”. In the test with APP/PS1 mouse [5] (9.5-month-old APP/PS1 mouse, 50 mg/kg intraperitoneally 3 times a week for 2 months, FIG. 7), the “level of LC3-II” value is given as “decreased to a level similar to WT”. Moreover, in the test with APP/PS1 mouse [5] (setting [7]), the “expression level of cathepsin D” value is recorded as “decreased” and the “expression level of p62” value is reported as “decreased”. Also, in the test with APP/PS1 mouse [5] (9.5-month-old WT, APP/PS1 and injected APP/PS1 mouse, FIG. 7), the “expression of beclin-1” value is recorded as “no large difference in the three groups”. Also, the “deposition of fibrillar Aβ (thioflavin S)” value in the test with APP/PS1 mouse [6] (cerebral cortex and hippocampus, FIG. 2) is on record as “significantly low”. Besides, the “deposition of Aβ40” value with APP/PS1 mouse [6] (cortex and hippocampus, FIG. 3A) was “significantly low”. Also, in the test with APP/PS1 mouse [6] (cortex and hippocampus, FIG. 3B), the “deposition of Aβ42” value is listed as “significantly low”. For the same compound, the “deposition of tau protein (AT8)” value in the test on APP/PS1 mouse [6] (cortex and hippocampus, FIG. 4) is on record as “significantly low”.
